Data published in patent US20240409536A1, “COMPOUNDS AND METHODS FOR MODULATING SPLICING” (REMIX THERAPEUTICS INC., priority 2021, published 2024).

Tests used:
HTT mRNA [1] = assay: Gene panel canonical junction qPCR assay, HTT CJ mRNA decrease; assay type: cell-based, human; conditions: Homo sapiens, canonical junction qPCR, read-out: HTT IC50 (decrease in CJ mRNA levels)
Procedure, shortened: (§1)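 A673 or K562 cells treated with compound; canonical exon-exon junction mRNA quantified by cDNA synthesis and RT-qPCR with junction-spanning primer/probe, normalized to GAPDH, GUSB or PPIA and DMSO (2^(−ΔΔCt)). Percent response from set ΔCt assay windows fitted to 4-parameter logistic; IC50 for CJ decrease.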

SMN2 mRNA = assay: Gene panel canonical junction qPCR assay, SMN2 CJ mRNA decrease; assay type: cell-based, human; conditions: Homo sapiens, canonical junction qPCR, read-out: SMN2 IC50 (decrease in CJ mRNA levels)
Procedure, shortened: as §1

HTT mRNA [2] = assay: Splicing RT-qPCR assay, HTT canonical (CJ) and alternative (AJ) junction mRNA; assay type: cell-based; conditions: Homo sapiens, A673 or K562 cells, 24 hours; for IC50: decrease in canonical junction mRNA; for AC50: increase in alternative junction mRNA
Procedure, shortened: (§2)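 A673 (DMEM/10% FBS, plated 24 h before dosing) or K562 (IMDM/10% FBS) cells treated 24 h at 37 °C with 11-point 3-fold dilutions, top final 10 uM, DMSO ≤0.25%. Lysates analysed by one-step RT-qPCR for CJ and AJ isoforms, normalized to GAPDH/GUSB (K562) or PPIA (A673).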

MYB mRNA = assay: Splicing RT-qPCR assay, MYB canonical (CJ) and alternative (AJ) junction mRNA; assay type: cell-based; conditions: Homo sapiens, A673 or K562 cells, 24 hours; for IC50: decrease in canonical junction mRNA; for AC50: increase in alternative junction mRNA
Procedure, shortened: as §2

Row | SMILES | IC50 (HTT mRNA [1]) [nM] | IC50 (SMN2 mRNA) [nM] | IC50 (HTT mRNA [2]) [nM] | AC50 (HTT mRNA [2]) [nM] | IC50 (MYB mRNA) [nM] | AC50 (MYB mRNA) [nM]
1 | Cc1cn2cc(NC(=O)c3ccc(N4CC(C)(C)NC(C)(C)C4)c4nccnc34)cc(F)c2n1 [Compound 219, N-{8-fluoro-2-methylimidazo[1,2-a]pyridin-6-yl}-8-(3,3,5,5-tetramethylpiperazin-1-yl)quinoxaline-5-carboxamide] | 1000 to 10000 | < 100 | 1000 to 10000 | 1000 to 10000 | < 100 | < 100
2 | Cc1cn2cc(NC(=O)c3ccc(N4CCNC(C)(C)C4)c4nccnc34)cc(F)c2n1 [Compound 220, 8-(3,3-dimethylpiperazin-1-yl)-N-{8-fluoro-2-methylimidazo[1,2-a]pyridin-6-yl}quinoxaline-5-carboxamide] | 1000 to 10000 | < 100 | 1000 to 10000 | 1000 to 10000 | < 100 | < 100
3 | CCNC1CCN(c2ccc(C(=O)Nc3cc(F)c4nc(C)sc4c3)c3nnccc23)CC1 [Compound 221, 5-[4-(ethylamino)piperidin-1-yl]-N-(4-fluoro-2-methyl-1,3-benzothiazol-6-yl)cinnoline-8-carboxamide] | 1000 to 10000 | < 100 | 1000 to 10000 | 1000 to 10000 | 1000 to 10000 | 1000 to 10000
4 | COc1cnc2c(C(=O)Nc3cc(F)c4nc(C)cn4c3)ccc(N3C[C@@H](C)N[C@@H](C)C3)c2n1 [Compound 223] | 100 to 1000 | < 100 | 100 to 1000 | 100 to 1000 | < 100 | < 100
5 | COc1cnc2c(C(=O)Nc3cc(F)c4nc(C)cn4c3)ccc(N3CCNCC3)c2n1 [Compound 225, N-{8-fluoro-2-methylimidazo[1,2-a]pyridin-6-yl}-2-methoxy-8-(piperazin-1-yl)quinoxaline-5-carboxamide] | > 10000 | < 100 | > 10000 | > 10000 | < 100 | 100 to 1000
6 | Cc1cn2cc(NC(=O)c3ccc(N4CCN(CCF)C5(CC5)C4)c4nccnc34)cc(F)c2n1 [Compound 370] | > 10000 | 100 to 1000 | > 10000 | > 10000 | 1000 to 10000 | > 10000
7 | Cc1cn2cc(NC(=O)c3ccc(C4CCNCC4)c4nccnc34)cc(F)c2n1 [Compound 371] | 100 to 1000 | < 100 | 100 to 1000 | 100 to 1000 | 100 to 1000 | < 100
8 | Cc1cn2cc(NC(=O)c3ccc(N4CCNC5(COC5)C4)c4nccnc34)cc(F)c2n1 [Compound 372] | > 10000 | 100 to 1000 | > 10000 | > 10000 | 1000 to 10000 | 1000 to 10000
9 | Cc1cn2cc(NC(=O)c3ccc(N4CCNC5(CCOC5)C4)c4nccnc34)cc(F)c2n1 (stereo not drawn) [Compound 373] | > 10000 | < 100 | > 10000 | > 10000 | 100 to 1000 | 1000 to 10000
10 | Cc1cn2cc(NC(=O)c3ccc(N4CCNC5(CCOCC5)C4)c4nccnc34)cc(F)c2n1 [Compound 374] | 1000 to 10000 | < 100 | 1000 to 10000 | 1000 to 10000 | 100 to 1000 | 100 to 1000
11 | Cc1cn2cc(NC(=O)c3ccc(C4CCNC5(CC5)C4)c4nccnc34)cc(F)c2n1 (stereo not drawn) [Compound 375] | 1000 to 10000 | < 100 | 1000 to 10000 | 1000 to 10000 | 100 to 1000 | 100 to 1000
12 | Cc1cn2cc(NC(=O)c3ccc(N4C[C@@H](C)NC5(CC5)C4)c4nccnc34)cc(F)c2n1 [Compound 376] | > 10000 | < 100 | > 10000 | > 10000 | 100 to 1000 | 100 to 1000
13 | Cc1cn2cc(NC(=O)c3ccc(N4C[C@H](C)NC5(CC5)C4)c4nccnc34)cc(F)c2n1 [Compound 377] | 1000 to 10000 | < 100 | 1000 to 10000 | 1000 to 10000 | < 100 | < 100
14 | COc1ncc2c(N3C[C@@H](C)N[C@@H](C)C3)ccc(C(=O)Nc3cn4cc(C)nc4c(OC)n3)c2n1 [Compound 378] | 100 to 1000 | < 100 | 100 to 1000 | 100 to 1000 | < 100 | < 100
